Molecules are shown by their SMILES. Values after ≈ are worked out from the molar mass of the structure shown. Read-outs that look alike come from different tables or passages of the source. Where only a bound is given, the exact number is not on record here.

One series deals with WiDr cells. As to the kind of experiment: Cell viability assay (trypan blue exclusion or MTT). Type of series: cell-based. The conditions noted are these: Homo sapiens, 24 hours treatment, read-out: IC 50 value. The source says: (§1) MCF-7/HER2 and MCF-7/EV are HER2 and empty vector-transfected MCF-7 cells obtained from Prof. Yoshio Inouye (Department of Surgery, Toho University School of Medicine, Japan) through Prof. Masashi Kawaichi (Laboratory of Gene Function in Animals, NAIST, Japan). The cells of 4T1, NIH-3T3, and T47D were kindly provided by Prof. Masashi Kawaichi (Laboratory of Gene Function in Animals, NAIST, Japan). K652 cells are the collection from the Laboratory of Tumor Cell Biology, Nara Institute of Science and Technology, Japan. HCC1954 and Caco2 cell lines were given by Dr. dr. Muhammad Hasan Bashari (Faculty of Medicine, Universitas Padjajaran, Indonesia). WiDr cell line was obtained from the Faculty of Medicine, Public Health, and Nursing Universitas Gadjah Mada, Indonesia. Briefly, MCF-7/HER2, MCF-7, NIH-3T3, T47D, MCF-7/EV, and 4T1 cells were cultured in Dulbecco’s Modified Eagles Medium (DMEM) high glucose (Gibco, USA), whereas HCC1954, Caco2, WiDr, K562 cells were grown in Rosewell Park Memorial Institute (RPMI) Medium. Both were supplemented with 10% (v/v) fetal bovine serum (Gibco, USA), HEPES (Sigma, USA), sodium bicarbonate (Sigma, USA), 150 IU/mL penicillin and 150 µg/mL streptomycin (Gibco) and 1.25 µg/mL amphotericin B (Gibco, USA). The cells were maintained at 37 °C with 5% CO2 in a humidified atmosphere.
(§2) Cells were grown in 24 or 96-well microplate and then cultured for 24 h. Subsequently, cells were treated with PGV-1 or CCA-1.1 at concentration series up to 10 µM, except for NIH-3T3 up to 100 µM and incubated for 24 hours. Untreated cells were used as control. After treatment, viable cells were enumerated using the trypan blue exclusion or quantified under MTT assay. The viable cells were represented as % cell viability vs. concentration of the sample, and the IC50 value or the concentration that inhibits 50% of cell growth was calculated.
(§3) Molecular docking results were validated by determining the RMSD value of conformation bearing the lowest docking score representing the ∆G (kkal/mol). The validity of the molecular docking method was represented as RMSD value < 2. Cytotoxic potencies against several cell lines were statistically analyzed based on the IC50 values through linear regression with a P value of […].

A further series relates to HCC1954 cells. The description is as above. Type of series: cell-based. Particulars: Homo sapiens; HCC1954, 24 hours treatment; read-out: IC 50 value.
Excerpt: as §1, §2, §3

Series [1] has as its system 4T1 cells. The series is described as above. Format: cell-based. Particulars: Mus musculus; 4T1, 24 hours treatment; read-out: IC 50 value.
Excerpt: as §1, §2, §3

Another series has as its system NIH-3T3 cells. The series is described as above. Format: cell-based. Particulars: Mus musculus, NIH3T3; NIH-3T3 (non-cancerous), concentrations up to 100 µM, 24 hours; read-out: IC 50 value.
Excerpt: as §1, §2, §3

For another series, the system named is Caco2 cells. The series is described as above. Type of series: cell-based. Particulars: Homo sapiens, Caco-2; Caco2, 24 hours treatment; read-out: IC 50 value.
Excerpt: as §1, §2, §3

Series [2] concerns MCF-7 cells. Described as above. Type of series: cell-based. Particulars: Homo sapiens, MCF7; MCF-7, 24 hours treatment; read-out: IC 50 value.
Excerpt: as §1, §2, §3

A further series deals with MCF-7/HER2 cells. The description is as above. Type of series: cell-based. The conditions noted are these: Homo sapiens, MCF7; MCF-7/HER2, 24 hours treatment; read-out: IC 50 value.
Excerpt: as §1, §2, §3

A further series concerns T47D cells. The description is as above. Particulars: Homo sapiens, 24 hours treatment, read-out: IC 50 value. Format: cell-based.
Excerpt: as §1, §2, §3

A further series relates to MCF-7/EV cells. Described as above. Format: cell-based. Particulars: Homo sapiens, MCF7, 24 hours treatment, read-out: IC 50 value.
Excerpt: as §1, §2, §3

Series [3] can be described thus: Dissolution and stability test in buffer solution. Type of series: physicochemical. Particulars: for Appearance of solution after storage for 48 hours: 100 µM, room temperature; for Absorbance change (stability) up to 3 hours: aqueous solution, light exposure, ambient temperature, especially pH 1.0. As for the experimental part: Each solution in the respected buffer was then evaluated for its stability at ambient temperature and light exposure. It measured the absorbance change at 428, 416, and 404 nm, subsequently over a time-course using a UV-1800 spectrophotometer (Shimadzu, Japan).

In series [4] the test system is several cancer cell lines. As to the kind of experiment: Cytotoxic assay on several cancer cell lines (summary statement). Format: cell-based. The conditions noted are these: several cancer cell lines (Table 3). The source says:
(§4) MCF-7/HER2 and MCF-7/EV are HER2 and empty vector-transfected MCF-7 cells obtained from Prof. Yoshio Inouye (Department of Surgery, Toho University School of Medicine, Japan) through Prof. Masashi Kawaichi (Laboratory of Gene Function in Animals, NAIST, Japan). The cells of 4T1, NIH-3T3, and T47D were kindly provided by Prof. Masashi Kawaichi (Laboratory of Gene Function in Animals, NAIST, Japan). K652 cells are the collection from the Laboratory of Tumor Cell Biology, Nara Institute of Science and Technology, Japan. HCC1954 and Caco2 cell lines were given by Dr. dr. Muhammad Hasan Bashari (Faculty of Medicine, Universitas Padjajaran, Indonesia). WiDr cell line was obtained from the Faculty of Medicine, Public Health, and Nursing Universitas Gadjah Mada, Indonesia. […]
(§5) Cells were grown in 24 or 96-well microplate and then cultured for 24 h. […] After treatment, viable cells were enumerated using the trypan blue exclusion or quantified under MTT assay. […]
(§6) Molecular docking results were validated by determining the RMSD value of conformation bearing the lowest docking score representing the ∆G (kkal/mol). […] Cytotoxic potencies against several cell lines were statistically analyzed based on the IC50 values through linear regression with a P value of […].

Series [5] deals with K562 cells. The series can be described thus: Cell viability assay (trypan blue exclusion or MTT). Type of series: cell-based, human.
Excerpt: as §4, §5, §6

Series [6] concerns MCF-7 cells. Further details: method as in PMID 31548601. Particulars: read-out: IC 50 value; cited from earlier work.
The subject of series [7] is K562 cells. Further details: method as in PMID 31619723. The conditions noted are these: read-out: IC 50 value; cited from earlier work.
The subject of series [8] is 4T1 cells. The conditions noted are these: read-out: IC 50 value; cited from earlier work.
For series [9] the following is noted: aqueous; cited from earlier work.

Turning to `Cc1cc(C=C2CCC(=Cc3cc(C)c(O)c(C)c3)C2O)cc(C)c1O` (centres unmarked) [CCA-1.1, 2,5-bis(4-hydroxy-3,5-dimethylbenzylidene)cyclopentanol], the IC50 with WiDr cells is 5 µM; with HCC1954 cells it was 6 µM; with 4T1 cells [1], 3 µM; in the series with NIH-3T3 cells it was over 50 µM; in the series on Caco2 cells, 5 µM; in the series with MCF-7 cells [2], under 10 µM. The IC50 was 5 µM with MCF-7/HER2 cells; 7 µM with T47D cells; 8 µM in the series on MCF-7/EV cells; under 10 µM in series [4]; 0.293 µM in the series on K562 cells [5] (Homo sapiens, K562, 24 hours treatment, read-out: IC 50 value). The “Appearance of solution after storage for 48 hours” value in series [3] is given as “still looked clear”. In addition, in series [3], the “Absorbance change (stability) up to 3 hours” value (shortened to “Absorbance change”) is reported as “unchanged absorbance up to 3 hours”. The “Solubility compared at a concentration of 100 µM” value in series [3] (distilled water, buffer pH 1.0 and pH 7.4, 100 µM) was “more soluble than PGV-1 and curcumin”. Further, the “Solubility relative to PGV-1” value in series [3] (pH 1.0, 7.4, distilled water, observations up to 48 hours) is on record as “two times more soluble than PGV-1”. For the same compound, the “Cytotoxic potency relative to PGV-1” value in the series on K562 cells [5] (K562) is reported as “twice stronger than PGV-1”.
Regarding `Cc1cc(C=C2CCC(=Cc3cc(C)c(O)c(C)c3)C2=O)cc(C)c1O` [PGV-1, 2,5-bis(4-hydroxy-3,5-dimethylbenzylidene)cyclopentanone], the IC50 in the series on WiDr cells was over 10 µM; with HCC1954 cells, 3 µM; with NIH-3T3 cells, over 50 µM; in the series with Caco2 cells, 12 µM; in the series on MCF-7/HER2 cells, 7 µM; in the series with T47D cells, 8 µM. In addition, the IC50 is 8 µM with MCF-7/EV cells; 6 µM in the series on MCF-7 cells [6]; 0.45 µM in the series on K562 cells [7]; 4 µM with 4T1 cells [8]; under 10 µM in [4]. Further, the “Appearance of solution at 50 µM” value in [3] (50 µM (data not shown)) is listed as “appeared clear”. Besides, the “Appearance of solution after storage for 48 hours” value in [3] is listed as “appeared with some sediment or crystal”. Moreover, the “Absorbance change” value in series [3] was “tended to decrease the absorbance at 3 hours”.
Regarding `COc1cc(C=CC(=O)CC(=O)C=Cc2ccc(O)c(OC)c2)ccc1O` [curcumin, 1,7-bis(4-hydroxy-3-methoxyphenyl)-1,6-heptadiene-3,5-dione], the “Absorbance change” value in series [3] is reported as “tended to decrease the absorbance at 3 hours”. Further, in series [9], the Solubility (commonly the concentration that dissolves in the medium under given conditions) is on record as 40 µM (≈ 14.7 µg/mL).

The record behind these values is PMC9348534 (Advanced Pharmaceutical Bulletin, 2021).
